# Measurements reported in ChEMBL document CHEMBL5131424, “Synthesis and evaluation of antibacterial and trypanocidal activity of derivatives of monensin A” (Bioorg Med Chem Lett, 2022).
# Experiments:
# Pseudomonas aeruginosa [1] = test: Antibacterial activity against Pseudomonas aeruginosa […]; format: functional
# [2] = system: Staphylococcus epidermidis; test: Antibacterial activity against Staphylococcus epidermidis 829/19; format: functional
# Escherichia coli [3] = test: Antibacterial activity against Escherichia coli NCTC 10538; format: functional
# [4] = system: Staphylococcus epidermidis; test: Antibacterial activity against Staphylococcus epidermidis 845/19; format: functional
# [5] = system: Staphylococcus epidermidis; test: Antibacterial activity against Staphylococcus epidermidis 840/19; format: functional
# Trypanosoma brucei = test: Antitrypanosomal activity against bloodstream form of Trypanosoma brucei clone 427-221a measured after 24 hrs by resazurin dye based assay; format: functional
# HL-60 = test: (§1) Cytotoxicity against human HL-60 cells assessed as reduction in cell viability measured after 24 hrs by resazurin dye based assay; format: toxicity; details: hl-60, 24 h
# [6] = as §1; format: toxicity; details: HL-60 cells
# Staphylococcus aureus [7] = test: Antibacterial activity against Staphylococcus aureus ATCC 25923; format: functional
# [8] = system: Staphylococcus epidermidis; test: Antibacterial activity against Staphylococcus epidermidis 825/19; format: functional
# [9] = Selectivity ratio of GI50 for cytotoxicity against human HL-60 cells to GI50 for antitrypanosomal activity against bloodstream form of Trypanosoma brucei clone 427-221a; format: toxicity, cell-based; details: read-out: RatioGI50
# [10] = system: Staphylococcus epidermidis; test: Antibacterial activity against Staphylococcus epidermidis ATCC 35984; format: functional
# [11] = system: Staphylococcus epidermidis; test: Antibacterial activity against Staphylococcus epidermidis 848/19; format: functional
# Staphylococcus aureus [12] = test: Antibacterial activity against Staphylococcus aureus ATCC 6538; format: functional
# [13] = system: Staphylococcus epidermidis; test: Antibacterial activity against Staphylococcus epidermidis 830/19; format: functional
# [14] = Selectivity ratio of MIC for cytotoxicity against human HL-60 cells to MIC for antitrypanosomal activity against bloodstream form of Trypanosoma brucei clone 427-221a; format: toxicity, cell-based
# [15] = system: Staphylococcus epidermidis; test: Antibacterial activity against Staphylococcus epidermidis ATCC 12228; format: functional
# [16] = system: Staphylococcus epidermidis; test: Antibacterial activity against Staphylococcus epidermidis 834/19; format: functional
# Pseudomonas aeruginosa [17] = test: Antibacterial activity against Pseudomonas aeruginosa ATCC 15442; format: functional
# [18] = system: Staphylococcus epidermidis; test: Antibacterial activity against Staphylococcus epidermidis 851/19; format: functional
# Escherichia coli [19] = test: Antibacterial activity against Escherichia coli ATCC 25922; format: functional
# Staphylococcus aureus [20] = test: Antibacterial activity against Staphylococcus aureus ATCC 29213; format: functional
# Staphylococcus aureus [21] = test: Antibacterial activity against Staphylococcus aureus NCTC 4163; format: functional
MIC (Pseudomonas aeruginosa [1]) [µg/mL],MIC [2] [µg/mL],MIC (Escherichia coli [3]) [µg/mL],MIC [4] [µg/mL],MIC [5] [µg/mL],GI50 (Trypanosoma brucei) [µM],MIC (Trypanosoma brucei) [µM],MIC (Staphylococcus aureus [7]) [µg/mL],MIC [8] [µg/mL],MIC [10] [µg/mL],MIC [11] [µg/mL],MIC (Staphylococcus aureus [12]) [µg/mL],MIC [13] [µg/mL],MIC [15] [µg/mL],MIC [16] [µg/mL],MIC (Pseudomonas aeruginosa [17]) [µg/mL],SMILES,MIC (HL-60) [µM],GI50 at 24 h [6] [µM],selectivity ratio [9],selectivity ratio [14],further results
> 256,2,> 256,2,2,0.038,1,1,1,2,2,2,2,2,2,> 256,CCCCCCCCCC(=O)OC[C@]1(O)O[C@H]([C@H]2C[C@H](C)[C@H]([C@]3(CO)CC[C@H]([C@]4(C)CC[C@]5(C[C@H](O)[C@@H](C)[C@@H]([C@@H](C)[C@@H](OC)[C@H](C)C(=O)O)O5)O4)O3)O2)[C@@H](C)C[C@H]1C,100,10,263,100,MIC [18]: 2 µg/mL; MIC (Escherichia coli [19]): > 256 µg/mL; MIC (Staphylococcus aureus [20]): 2 µg/mL; MIC (Staphylococcus aureus [21]): 2 µg/mL
> 256,1,> 256,2,2,0.29,1,1,0.25,2,1,2,1,1,1,> 256,CO[C@H]([C@H](C)[C@H]1O[C@@]2(CC[C@@](C)([C@H]3CC[C@@](CO)([C@@H]4O[C@@H]([C@H]5O[C@@](O)(COC(C)=O)[C@H](C)C[C@@H]5C)C[C@@H]4C)O3)O2)C[C@H](O)[C@H]1C)[C@H](C)C(=O)O,10,5.51,19,10,MIC [18]: 2 µg/mL; MIC (Escherichia coli [19]): > 256 µg/mL; MIC (Staphylococcus aureus [20]): 2 µg/mL; MIC (Staphylococcus aureus [21]): 2 µg/mL
> 256,4,> 256,4,4,3.48,10,2,2,8,4,4,4,2,4,> 256,CO[C@H]([C@H](C)[C@H]1O[C@@]2(CC[C@@](C)([C@H]3CC[C@@](CO)([C@@H]4O[C@@H]([C@H]5O[C@@](O)(COC(=O)NCCCl)[C@H](C)C[C@@H]5C)C[C@@H]4C)O3)O2)C[C@H](O)[C@H]1C)[C@H](C)C(=O)O,100,22.4,6.4,10,MIC [18]: 4 µg/mL; MIC (Escherichia coli [19]): > 256 µg/mL; MIC (Staphylococcus aureus [20]): 2 µg/mL; MIC (Staphylococcus aureus [21]): 2 µg/mL
> 256,16,> 256,32,16,0.0047,0.1,1,8,2,16,2,16,2,8,> 256,CO[C@H]([C@H](C)[C@H]1O[C@@]2(CC[C@@](C)([C@H]3CC[C@@](CO)([C@@H]4O[C@@H]([C@H]5O[C@@](O)(COC(=O)NC(=O)CCl)[C@H](C)C[C@@H]5C)C[C@@H]4C)O3)O2)C[C@H](O)[C@H]1C)[C@H](C)C(=O)O,10,3.51,746,100,MIC [18]: 16 µg/mL; MIC (Escherichia coli [19]): > 256 µg/mL; MIC (Staphylococcus aureus [20]): 2 µg/mL; MIC (Staphylococcus aureus [21]): 2 µg/mL
> 256,2,> 256,2,2,0.31,1,1,1,2,2,1,2,1,2,> 256,CO[C@H]([C@H](C)[C@H]1O[C@@]2(CC[C@@](C)([C@H]3CC[C@@](CO)([C@@H]4O[C@@H]([C@H]5O[C@@](O)(COC(=O)NCc6ccccc6)[C@H](C)C[C@@H]5C)C[C@@H]4C)O3)O2)C[C@H](O)[C@H]1C)[C@H](C)C(=O)O,100,19.5,62.9,100,MIC [18]: 2 µg/mL; MIC (Escherichia coli [19]): > 256 µg/mL; MIC (Staphylococcus aureus [20]): 2 µg/mL; MIC (Staphylococcus aureus [21]): 1 µg/mL
,,,,,0.05,1,,,,,,,,,,Cc1ccc(C(=O)Nc2ccc(S(=O)(=O)O)c3cc(S(=O)(=O)O)cc(S(=O)(=O)O)c23)cc1NC(=O)c1cccc(NC(=O)Nc2cccc(C(=O)Nc3cc(C(=O)Nc4ccc(S(=O)(=O)O)c5cc(S(=O)(=O)O)cc(S(=O)(=O)O)c45)ccc3C)c2)c1 [SURAMIN],> 100,> 100,> 2000,> 100,
